A short description of series [1]: Encapsulation of fluoride using NPC. The format is physicochemical. Particulars: preliminary studies. The text has this: (§1) In addition, amine fluoride is known to have antibacterial properties.
The conditions of series [2]: monomer / monomer residue; cited from earlier work.
For another series, the system named is S. mutans cells.
From the text: as §1

The conditions of series [3]: farnesol on one degradable tether length (6 degradable bonds).
The next series relates to S. mutans UA159 biofilms. Kind of series: S. mutans biofilm on sHA discs, topical treatment regimen (Example 2). The format is cell-based, Streptococcus mutans. Particulars: equivalent farnesol dose / controls. The procedure: Biofilms of S. mutans UA159 were formed on saliva coated hydroxyapatite (sHA) surfaces (12.7 mm in diameter, 1 mm in thickness, Clarkson Chromatography Products Inc., South Williamsport, Pa.) as detailed elsewhere (Koo et al., 2010, J Bacteriol, 192(12):3024-32). […] Disks were pretreated with the above-described solutions for 10 min, washed twice with sterile saline, and transferred back to culture media. […] Biofilms were allowed to form on the discs without interruption for 6 hours at which point a second treatment was applied. The next day, biofilms were treated every 6 hours for a total of 3 treatments and the culture media was changed twice. After 48 hours, the amount of colony forming units (CFU) per dry-weight of biofilms was assessed. Briefly, the biofilms were removed and homogenized, then plated onto blood agar plates, and after incubation at 37° C., 5% CO2, the CFUs were counted as described previously (Koo et al., 2003, J Antimicrob Chemother, 52(5):782-9).

A further series concerns Streptococcus mutans. Particulars: cited from earlier work.
The subject of series [4] is Streptococcus mutans UA159 biofilms. Kind of series: S. mutans biofilm on sHA discs, topical treatment regimen (Example 3). The format is cell-based. Particulars: 7 topical applications over 54 h. The procedure: Streptococcus mutans UA159, a well-characterized EPS matrix producing and cariogenic pathogen (W. H. Bowen and H. Koo, Caries Res., 2011, 45, 69-86), was used to assess the effect of nanoparticle-mediated delivery of farnesol on biofilm formation using a topical treatment regimen (Horev et al., ACS Nano, 2015, 9, 2390-2404; Koo et al., J. Antimicrob. Chemother., 2003, 52, 782-789). The treatment solutions were: free nanoparticles (1.9 mg ml^−1 in PBS, pH 7.0), farnesol-loaded nanoparticles (1.9 mg ml^−1 loaded with 0.5 mg ml^−1 farnesol, in PBS, pH 7.0), free farnesol (0.5 mg ml^−1 farnesol, in PBS, pH 7.0, 20% ethanol (EtOH)), vehicle control for free farnesol (PBS, pH 7.0, 20% EtOH), and PBS (pH 7.0). A 20% v/v ethanol solution was used as a vehicle to solubilize free farnesol, which is otherwise insoluble in aqueous media (Koo et al., J. Antimicrob. Chemother., 2003, 52, 782-789). […]
The sHA discs and biofilms were treated for 10 min, washed twice with sterile saline (0.89% NaCl), and transferred to culture media. […] Aliquots of biofilm suspension were serially diluted and plated onto blood agar plates, and after 48 h incubation (37° C. and 5% CO2), the colonies were visually counted. […]

A short description of series [5]: pKa and protonation values of monomers and polymers. Particulars: FIG. 22. The format is physicochemical.

Values joined by “and” are separate entries in the source; they are usually repeats but may differ in a detail not shown here. Equal entries are not always repeated.

With `[F-].[Na+]` [sodium fluoride], in series [1], the “compatibility with loading into NPC” value was “not compatible with loading into or onto the NPC”. With `C=C(C)C(=O)OCCN(C)C` [DMAEMA, dimethylaminoethyl methacrylate], in series [2], the pKa of monomer is ~7.2 and 7.2-7.4. As to Amine fluoride, in the series with S. mutans cells, the biofilm formation entry is reported as “inhibit biofilm formation” and the “killing of S. mutans cells” value was “able to kill S. mutans cells at the μM level”.

Take Imidazole methacrylate [IMA]: in series [2], the pKa of monomer is 6.9-7.0.

As for “poly(dimethylaminoethyl methacrylate)-b-poly(dimethylaminoethyl methacrylate-co-propylacrylic acid-co-butyl methacrylate) [NPC]”, the “duration of sustained delivery of farnesol” value in series [3] is on record as “up to 6 days”. As for `C=C(C)C(=O)O` [MAA, methacrylic acid], the pKa of monomer in series [2] was around 4.6. Turning to propylacrylic acid [PAA], the pKa of monomer in series [2] was ~7 and 6.8-7.0. Regarding `CC(C)=CCCC(C)=CCCC(C)=CCO` [farnesol], the “effect on biofilm CFU relative to PBS” value in the series with S. mutans UA159 biofilms was “no effect on CFU relative to PBS”. Further, the MIC of farnesol in the series on Streptococcus mutans was below 28 µg/mL. Also, in series [4], the “CFUs per biofilm dry weight / antibiofilm efficacy” value was “only a modest reduction”. As to `C=C(C)C(=O)OCCN(CC)CC` [DEAEMA, diethylaminoethyl methacrylate], the pKa of monomer in series [2] is on record as around 7.

In the case of ethylacrylic acid [EAA], in series [5], the “pKa of synthesized imidazole and ethylacrylic acid functionalities” value worked out at 6.3. Besides, the pKa of monomer in series [2] is ~6.3 and 6.3-6.5.

Source of the values: patent publication US20210330599A1, “Nanoparticles for Controlled Release of Anti-Biofilm Agents and Methods of Use” (University of Rochester, priority 2016, published 2021).
